Non-standard residues stand in square brackets, D forms with d. No end group written: not given here. *: point of attachment. FITC = O=C1OC2(c3ccc(O)cc3Oc3cc(O)ccc32)c2ccc(NC(=S)*)cc21; pY = N[C@@H](Cc1ccc(OP(=O)(O)O)cc1)C(=O)O
Tested on: GVHD and B-ALL-luc tumor cells
Test: Allo-HSCT GVHD/GVL model with donor T cells transduced with SLP76pTYR-pCherry virus
Format: in vivo, BALB/c mice
Details: murine allo-HSCT major mismatch model
Procedure: GVHD and GVL studies: Recipient BALB/c mice (MHC haplotype d) as recipients were lethally irradiated with 800 cGy total in two split doses of 400cGy. Bone marrow cells were harvested from mouse legs, and total bone marrow cells were incubated with CD90.2 beads, using 100 ul of beads per mouse according to manufacturer protocols. NK cells were depleted and by DX5 beads, and CD122+ cells with anti PE beads. Recipient mice were injected intravenously with 10×10^6 T cell-depleted bone marrow (TCDBM) cells, with or without donor T cells, either 1×10^6 or 2×10^6 FACS-sorted CD8^+, CD4^+ T cells, or CD8^+ and CD4^+ cells mixed at a 1:1 ratio from WT or SLP76 Y145FKI mice. For GVL experiments, primary B cell acute lymphoblastic leukemia (B-ALL, syngeneic to BALB/c and allogeneic to C57BI/6) blasts were transduced with luciferase as described previously (Cheng et al., 2016), and 2×10^5 luciferase-expressing B-ALL-luc cells were used per recipient mouse unless otherwise specified. […] The bioluminescence data were analyzed and quantified with Living Image Software (Xenogen) and Igor Pro (Wave Metrics, Lake Oswego, OR). Recipient animals were evaluated for clinical score 2-3 times per week by a scoring system that sums changes in 6 clinical parameters: (1) weight loss, (2) posture, (3) activity, (4) fur texture, (5) diarrhea and (6) skin integrity (Cooke et al., 1996). […]

FITC Dye ^132NEEEEAPVEDDADpYEPPPSNDEEA^155-TAT ({FITC}-NEEEEAPVEDDAD[pY]EPPPSNDEEAGRKKRRQRRRPQ) [SLP76pTYR]
GVHD and GVL outcome (summary statement): tumor clearance without inducing GVHD
GVHD and GVL outcome (summary statement) (listed as SLP76145pTYR): significantly reduced GVHD pathophysiology but maintained GVL function

Reference: patent US12729381B2, “Methods and compositions for inactivating interleukin-2-inducible t-cell kinase (ITK)” (priority 2020, dated 2026)
